In ChEMBL document CHEMBL5463723, “Data for DCP probe BIBO3304” (2023):

Experiments:
[1] = target: Neprilysin (Homo sapiens) (UniProt P08473); assay: Activity against NEUTRALENDOP in the Eurofins Panlabs screen (BI) by absorption of electromagnetic radiation; conditions: Compound concentration 10.0 uM
[2] = target: Alpha-1A adrenergic receptor (Homo sapiens) (UniProt P35348); assay: Activity against ALPHA1A/R in the Eurofins Panlabs screen (BI) by Others; conditions: Rattus norvegicus; Compound concentration 10.0 uM
[3] = target: Muscarinic acetylcholine receptor M3 (Rattus norvegicus) (UniProt P08483); assay: Activity against M3/R in the Eurofins Panlabs screen (BI) by Radioactive Assay; conditions: Compound concentration 10.0 uM
[4] = target: Serotonin 1 (5-HT1) receptor (Rattus norvegicus) (UniProt P28564+P30940+P19327+P28565); assay: Activity against 5HT1/R in the Eurofins Panlabs screen (BI) by Radioactive Assay; assay type: protein assay; conditions: Compound concentration 10.0 uM
[5] = target: B2 bradykinin receptor (Cavia porcellus) (UniProt O70526); assay: Activity against B2/GP in the Eurofins Panlabs screen (BI) by Radioactive Assay; conditions: Compound concentration 10.0 uM
[6] = target: Vasoactive intestinal peptide receptor 1 (Cavia porcellus) (UniProt A0A286XMQ0); assay: Activity against VIP1/GP in the Eurofins Panlabs screen (BI) by Radioactive Assay; conditions: Compound concentration 10.0 uM
[7] = target: Glutamate NMDA receptor (Rattus norvegicus) (UniProt P35439+Q00959+Q00960+Q00961+Q62645+Q8VHN2+Q9R1M7); assay: Agonist activity in the Eurofins Panlabs screen (BI) against NMDAAGSI/R by Radioactive Assay; assay type: protein-complex assay; conditions: Compound concentration 10.0 uM
[8] = target: Polyunsaturated fatty acid 5-lipoxygenase (Homo sapiens) (UniProt P09917); assay: Activity against 5LO in the Eurofins Panlabs screen (BI) by Radioactive Assay; conditions: Compound concentration 30.0 uM
Rattus norvegicus [9] = species on record: Rattus norvegicus; assay: Inhibitor of CALCINEUPP2B in the Eurofins Panlabs screen (BI) by Radioactive Assay; conditions: Compound concentration 10.0 uM
Rattus norvegicus [10] = species on record: Rattus norvegicus; assay: Activity against BETA/R in the Eurofins Panlabs screen (BI) by Radioactive Assay; conditions: Compound concentration 10.0 uM
[11] = target: Mu-type opioid receptor (Cavia porcellus) (UniProt P97266); assay: Activity against MU/GP in the Eurofins Panlabs screen (BI) by Radioactive Assay; conditions: Compound concentration 10.0 uM
[12] = target: Neutrophil elastase (Homo sapiens) (UniProt P08246); assay: Activity against ELASTASEPMN in the Eurofins Panlabs screen (BI) by absorption of electromagnetic radiation; conditions: Compound concentration 30.0 uM
[13] = target: Acetyl-coenzyme A synthetase, cytoplasmic (Homo sapiens) (UniProt Q9NR19); assay: Inhibitor of ACOASYN in the Eurofins Panlabs screen (BI) by Radioactive Assay; conditions: Compound concentration 100.0 uM
[14] = target: Alpha-1B adrenergic receptor (Homo sapiens) (UniProt P35368); assay: Activity against ALPHA1B/R in the Eurofins Panlabs screen (BI) by Radioactive Assay; conditions: Rattus norvegicus; Compound concentration 10.0 uM
[15] = target: Muscarinic acetylcholine receptor M1 (Rattus norvegicus) (UniProt P08482); assay: Activity against M1/R in the Eurofins Panlabs screen (BI) by Radioactive Assay; conditions: Compound concentration 10.0 uM
Homo sapiens = species on record: Homo sapiens; assay: Agonist activity in the Eurofins Cerep SafetyScreen44 (BI) against N_NEURO_A4B2 by Radioligand Binding (Cerep_3029); assay type: protein-complex assay; conditions: Compound concentration 10.0 uM
[16] = target: Bombesin receptor subtype-3 (Rattus norvegicus) (UniProt Q8K418); assay: Activity against BOMBESIN/R in the Eurofins Panlabs screen (BI) by Radioactive Assay; conditions: Compound concentration 10.0 uM
[17] = target: Muscarinic acetylcholine receptor (Rattus norvegicus) (UniProt P08482+P08483+P08485+P08911+P10980); assay: Activity against MUSCARIN/NS in the Eurofins Panlabs screen (BI) by Radioactive Assay; assay type: protein assay; conditions: Compound concentration 10.0 uM
[18] = target: 3',5'-cyclic-AMP phosphodiesterase 4D (Homo sapiens) (UniProt Q08499); assay: Inhibitor of PDE4D2 in the Eurofins Cerep SafetyScreen44 (BI) by Scintillation counting (Cerep_4077); conditions: Compound concentration 10.0 uM
[19] = target: Interleukin-1 receptor type 1 (Mus musculus) (UniProt P13504); assay: Activity against IL-1ALPHA/M in the Eurofins Panlabs screen (BI) by Radioactive Assay; conditions: Compound concentration 10.0 uM
[20] = target: D(1A) dopamine receptor (Homo sapiens) (UniProt P21728); assay: Activity against D1/HU in the Eurofins Panlabs screen (BI) by Radioactive Assay; conditions: Compound concentration 10.0 uM
[21] = target: Glutamate receptor ionotropic, kainate 1 (Rattus norvegicus) (UniProt P22756); assay: Activity against KAINATE/R in the Eurofins Panlabs screen (BI) by Radioactive Assay; conditions: Compound concentration 10.0 uM
[22] = target: 5-hydroxytryptamine receptor 1A (Rattus norvegicus) (UniProt P19327); assay: Activity against 5HT1A/R in the Eurofins Panlabs screen (BI) by Radioactive Assay; conditions: Compound concentration 10.0 uM
[23] = target: Glycine receptor (Rattus norvegicus) (UniProt P22771+P24524+P07727+P20781); assay: Activity against GLYCINSTRS in the Eurofins Panlabs screen (BI) by Radioactive Assay; assay type: protein-complex assay; conditions: Compound concentration 10.0 uM
[24] = target: Tumor necrosis factor (Homo sapiens) (UniProt P01375); assay: Activity against TNFA/HU/HELA in the Eurofins Panlabs screen (BI) by Radioactive Assay; conditions: Compound concentration 10.0 uM
[25] = target: Tyrosine-protein kinase Lck (Homo sapiens) (UniProt P06239); assay: Inhibitor of P56TYRKINLCK in the Eurofins Panlabs screen (BI) by FI - fluorescence intensity; conditions: Compound concentration 10.0 uM
[26] = target: Beta-2 adrenergic receptor (Rattus norvegicus) (UniProt P10608); assay: Activity against BETA2/R in the Eurofins Panlabs screen (BI) by Radioactive Assay; conditions: Compound concentration 10.0 uM
[27] = target: D(1B) dopamine receptor (Homo sapiens) (UniProt P21918); assay: Activity against D5/HU in the Eurofins Panlabs screen (BI) by Radioactive Assay; conditions: Compound concentration 10.0 uM
[28] = target: Androgen receptor (Homo sapiens) (UniProt P10275); conditions: Compound concentration 10.0 uM
Description: Activity against ANDROGEN/H in the Eurofins Cerep SafetyScreen44 (BI) by Radioactive Assay (Cerep_933)

[29] = target: Carbonic anhydrase 6 (Homo sapiens) (UniProt P23280); assay: Inhibitor of CANHYDRASE in the Eurofins Panlabs screen (BI) by absorption of electromagnetic radiation; conditions: Compound concentration 10.0 uM
[30] = target: Alpha-1A adrenergic receptor (Homo sapiens) (UniProt P35348); assay: Agonist activity in the Eurofins Cerep SafetyScreen44 (BI) against ALPHA1AH_ANTAG by Scintillation counting (Cerep_2338); conditions: Compound concentration 10.0 uM
[31] = target: Cholecystokinin receptor type A (Rattus norvegicus) (UniProt P30551); assay: Activity against CCKA/R in the Eurofins Panlabs screen (BI) by Radioactive Assay; conditions: Compound concentration 10.0 uM
[32] = target: T1, Neuropeptide Y receptor type 2 (Homo sapiens, UniProt P49146); assay: Radioligand binding assay (NPY2R, SMS-KAN cells); assay type: cell-based
T1 sequence (P49146 whole entry): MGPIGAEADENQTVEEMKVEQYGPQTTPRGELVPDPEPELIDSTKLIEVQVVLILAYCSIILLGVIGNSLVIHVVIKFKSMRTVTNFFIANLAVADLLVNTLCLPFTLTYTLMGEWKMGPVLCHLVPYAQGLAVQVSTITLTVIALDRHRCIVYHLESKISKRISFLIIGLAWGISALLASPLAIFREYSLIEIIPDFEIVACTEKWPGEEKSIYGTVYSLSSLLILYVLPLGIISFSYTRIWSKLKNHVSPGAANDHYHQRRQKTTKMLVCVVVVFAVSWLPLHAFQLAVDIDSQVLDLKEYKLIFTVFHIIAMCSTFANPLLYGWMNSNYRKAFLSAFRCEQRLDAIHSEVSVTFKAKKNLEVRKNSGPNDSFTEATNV

Sequence of Alpha-1A adrenergic receptor (Homo sapiens) (P35348 whole entry): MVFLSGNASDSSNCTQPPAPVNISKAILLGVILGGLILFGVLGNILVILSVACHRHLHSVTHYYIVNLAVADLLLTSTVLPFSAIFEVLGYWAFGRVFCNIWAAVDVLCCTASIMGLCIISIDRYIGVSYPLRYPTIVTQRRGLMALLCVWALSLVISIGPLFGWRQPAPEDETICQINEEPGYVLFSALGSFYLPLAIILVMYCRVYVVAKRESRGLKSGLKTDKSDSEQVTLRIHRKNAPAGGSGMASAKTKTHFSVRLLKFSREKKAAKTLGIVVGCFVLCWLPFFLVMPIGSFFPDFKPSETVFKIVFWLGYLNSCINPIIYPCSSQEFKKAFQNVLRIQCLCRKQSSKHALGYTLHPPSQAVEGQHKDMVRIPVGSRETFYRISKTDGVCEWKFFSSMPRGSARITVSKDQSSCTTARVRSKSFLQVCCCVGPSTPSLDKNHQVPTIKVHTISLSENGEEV
Sequence of D(1A) dopamine receptor (Homo sapiens) (P21728 whole entry): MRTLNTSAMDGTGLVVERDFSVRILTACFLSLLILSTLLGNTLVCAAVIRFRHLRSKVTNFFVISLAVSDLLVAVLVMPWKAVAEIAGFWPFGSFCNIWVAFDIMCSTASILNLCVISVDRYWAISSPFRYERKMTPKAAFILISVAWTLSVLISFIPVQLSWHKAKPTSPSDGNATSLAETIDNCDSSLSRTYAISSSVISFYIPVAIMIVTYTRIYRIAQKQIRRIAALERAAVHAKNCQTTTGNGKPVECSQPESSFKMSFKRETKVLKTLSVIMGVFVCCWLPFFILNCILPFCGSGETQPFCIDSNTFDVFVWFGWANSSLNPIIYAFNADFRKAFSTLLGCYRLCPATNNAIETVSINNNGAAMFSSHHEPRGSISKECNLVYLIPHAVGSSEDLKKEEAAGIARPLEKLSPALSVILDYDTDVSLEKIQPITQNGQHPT
Sequence of Neprilysin (Homo sapiens) (P08473 whole entry): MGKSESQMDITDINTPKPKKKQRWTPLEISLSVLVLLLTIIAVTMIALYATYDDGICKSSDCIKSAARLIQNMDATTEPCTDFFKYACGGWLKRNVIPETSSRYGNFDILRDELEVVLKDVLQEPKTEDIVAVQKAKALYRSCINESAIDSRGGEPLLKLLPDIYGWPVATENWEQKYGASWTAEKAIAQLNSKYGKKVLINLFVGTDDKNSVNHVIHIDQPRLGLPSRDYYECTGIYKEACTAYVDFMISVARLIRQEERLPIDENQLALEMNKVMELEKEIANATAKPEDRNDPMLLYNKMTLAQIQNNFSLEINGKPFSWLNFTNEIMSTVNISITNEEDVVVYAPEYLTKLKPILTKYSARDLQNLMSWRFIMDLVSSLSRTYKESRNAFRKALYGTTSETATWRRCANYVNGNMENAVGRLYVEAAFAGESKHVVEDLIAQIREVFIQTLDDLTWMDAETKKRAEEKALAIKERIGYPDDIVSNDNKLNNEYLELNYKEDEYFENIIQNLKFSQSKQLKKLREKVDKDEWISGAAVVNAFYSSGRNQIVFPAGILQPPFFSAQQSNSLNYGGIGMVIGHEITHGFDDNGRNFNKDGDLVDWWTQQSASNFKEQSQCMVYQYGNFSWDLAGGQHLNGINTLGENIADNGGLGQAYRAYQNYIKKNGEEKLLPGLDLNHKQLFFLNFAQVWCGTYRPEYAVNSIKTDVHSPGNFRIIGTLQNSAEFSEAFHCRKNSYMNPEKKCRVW
Sequence of Bombesin receptor subtype-3 (Rattus norvegicus) (Q8K418 whole entry): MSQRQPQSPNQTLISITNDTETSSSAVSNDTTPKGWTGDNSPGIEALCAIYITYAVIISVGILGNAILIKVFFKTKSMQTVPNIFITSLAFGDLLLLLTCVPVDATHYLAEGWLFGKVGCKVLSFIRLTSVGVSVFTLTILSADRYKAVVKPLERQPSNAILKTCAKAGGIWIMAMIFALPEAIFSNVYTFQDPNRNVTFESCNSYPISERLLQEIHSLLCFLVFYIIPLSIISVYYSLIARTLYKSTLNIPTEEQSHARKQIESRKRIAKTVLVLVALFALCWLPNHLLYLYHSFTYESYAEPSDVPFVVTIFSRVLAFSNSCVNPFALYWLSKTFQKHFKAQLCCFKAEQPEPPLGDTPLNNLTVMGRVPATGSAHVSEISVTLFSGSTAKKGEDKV
Sequence of Tumor necrosis factor (Homo sapiens) (P01375 whole entry): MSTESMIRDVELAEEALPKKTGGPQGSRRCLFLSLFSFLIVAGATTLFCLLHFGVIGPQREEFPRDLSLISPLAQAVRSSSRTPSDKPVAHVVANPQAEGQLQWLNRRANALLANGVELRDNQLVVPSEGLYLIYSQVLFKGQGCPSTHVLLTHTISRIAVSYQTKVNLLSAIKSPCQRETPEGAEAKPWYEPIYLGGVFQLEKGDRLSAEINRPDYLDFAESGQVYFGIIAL
Sequence of Alpha-1B adrenergic receptor (Homo sapiens) (P35368 whole entry): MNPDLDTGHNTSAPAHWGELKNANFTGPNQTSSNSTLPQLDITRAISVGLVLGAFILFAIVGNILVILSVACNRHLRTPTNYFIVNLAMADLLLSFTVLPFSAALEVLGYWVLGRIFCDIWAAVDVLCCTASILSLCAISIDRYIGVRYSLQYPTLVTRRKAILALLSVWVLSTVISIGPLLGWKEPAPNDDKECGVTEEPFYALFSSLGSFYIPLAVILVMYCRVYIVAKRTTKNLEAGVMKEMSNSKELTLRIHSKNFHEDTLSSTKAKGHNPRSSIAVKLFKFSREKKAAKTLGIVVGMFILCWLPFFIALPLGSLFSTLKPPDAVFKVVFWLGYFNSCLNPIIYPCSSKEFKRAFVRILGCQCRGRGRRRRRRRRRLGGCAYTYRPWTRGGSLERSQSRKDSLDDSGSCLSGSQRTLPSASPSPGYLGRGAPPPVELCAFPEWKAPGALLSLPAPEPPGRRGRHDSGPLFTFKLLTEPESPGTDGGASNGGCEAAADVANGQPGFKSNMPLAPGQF
Sequence of D(1B) dopamine receptor (Homo sapiens) (P21918 whole entry): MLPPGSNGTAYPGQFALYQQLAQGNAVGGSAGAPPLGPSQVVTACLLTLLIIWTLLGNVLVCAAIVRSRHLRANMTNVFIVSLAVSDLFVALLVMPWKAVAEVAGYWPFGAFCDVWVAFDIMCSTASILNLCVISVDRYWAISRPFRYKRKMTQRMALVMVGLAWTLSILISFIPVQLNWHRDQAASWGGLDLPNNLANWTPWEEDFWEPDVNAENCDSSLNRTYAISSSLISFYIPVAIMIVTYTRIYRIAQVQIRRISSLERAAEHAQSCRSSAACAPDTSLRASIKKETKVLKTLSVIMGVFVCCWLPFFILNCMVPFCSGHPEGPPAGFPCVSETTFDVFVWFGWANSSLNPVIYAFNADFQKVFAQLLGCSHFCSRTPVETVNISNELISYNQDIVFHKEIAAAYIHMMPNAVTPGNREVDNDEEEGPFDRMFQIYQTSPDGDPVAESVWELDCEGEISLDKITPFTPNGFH
Sequence of Vasoactive intestinal peptide receptor 1 (Cavia porcellus) (A0A286XMQ0 as listed by the source): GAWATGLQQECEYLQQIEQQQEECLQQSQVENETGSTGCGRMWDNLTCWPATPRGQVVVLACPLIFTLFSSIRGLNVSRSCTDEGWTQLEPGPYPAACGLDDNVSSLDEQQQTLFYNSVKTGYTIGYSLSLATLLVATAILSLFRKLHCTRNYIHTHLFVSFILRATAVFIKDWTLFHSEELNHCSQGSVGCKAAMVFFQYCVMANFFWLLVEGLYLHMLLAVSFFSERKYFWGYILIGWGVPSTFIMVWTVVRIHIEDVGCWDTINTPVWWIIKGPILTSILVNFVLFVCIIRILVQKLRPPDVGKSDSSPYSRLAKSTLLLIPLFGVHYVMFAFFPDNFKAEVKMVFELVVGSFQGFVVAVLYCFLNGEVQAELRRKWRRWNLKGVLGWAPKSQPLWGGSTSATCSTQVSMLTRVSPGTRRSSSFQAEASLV
Sequence of Neutrophil elastase (Homo sapiens) (P08246 whole entry): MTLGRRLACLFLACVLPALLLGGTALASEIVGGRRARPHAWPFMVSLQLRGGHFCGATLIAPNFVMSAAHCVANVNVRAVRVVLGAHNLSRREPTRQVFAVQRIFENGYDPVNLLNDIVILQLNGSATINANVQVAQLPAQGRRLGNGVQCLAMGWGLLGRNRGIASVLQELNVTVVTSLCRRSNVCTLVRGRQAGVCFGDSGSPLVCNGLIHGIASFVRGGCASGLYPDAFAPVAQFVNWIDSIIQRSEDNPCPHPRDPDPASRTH
Sequence of Muscarinic acetylcholine receptor M1 (Rattus norvegicus) (P08482 whole entry): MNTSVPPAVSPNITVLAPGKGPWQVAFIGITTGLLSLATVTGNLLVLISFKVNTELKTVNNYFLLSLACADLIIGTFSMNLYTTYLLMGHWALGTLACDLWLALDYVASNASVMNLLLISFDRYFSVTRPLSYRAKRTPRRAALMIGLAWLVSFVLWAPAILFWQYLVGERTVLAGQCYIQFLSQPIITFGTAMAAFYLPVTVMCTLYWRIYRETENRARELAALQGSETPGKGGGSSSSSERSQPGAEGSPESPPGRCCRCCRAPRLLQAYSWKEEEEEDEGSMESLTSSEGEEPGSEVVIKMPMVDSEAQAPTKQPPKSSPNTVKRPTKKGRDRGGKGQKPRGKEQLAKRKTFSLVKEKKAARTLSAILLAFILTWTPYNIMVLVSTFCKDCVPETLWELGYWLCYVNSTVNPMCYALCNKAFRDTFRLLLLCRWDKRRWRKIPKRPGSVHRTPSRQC
Sequence of 5-hydroxytryptamine receptor 1A (Rattus norvegicus) (P19327 whole entry): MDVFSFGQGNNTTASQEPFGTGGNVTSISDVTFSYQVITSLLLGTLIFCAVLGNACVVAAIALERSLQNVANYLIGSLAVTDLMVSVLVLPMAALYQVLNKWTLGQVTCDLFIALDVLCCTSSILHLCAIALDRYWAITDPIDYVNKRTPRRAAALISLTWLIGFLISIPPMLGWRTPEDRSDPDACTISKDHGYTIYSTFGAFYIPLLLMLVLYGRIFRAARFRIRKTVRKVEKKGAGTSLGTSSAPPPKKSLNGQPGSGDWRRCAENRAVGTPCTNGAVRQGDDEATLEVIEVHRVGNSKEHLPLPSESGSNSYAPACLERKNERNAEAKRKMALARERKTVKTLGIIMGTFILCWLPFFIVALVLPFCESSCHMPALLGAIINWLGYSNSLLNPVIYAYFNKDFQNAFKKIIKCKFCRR

residual activity [1]: 102%
residual activity [2]: 98%
residual activity [3]: 85%
residual activity [4]: 90%
residual activity [5]: 115%
residual activity [6]: 88%
residual activity [7]: 89%
residual activity [8]: 97%
residual activity (Rattus norvegicus [9]): 90%
residual activity (Rattus norvegicus [10]): 106%
residual activity [11]: 104%
residual activity [12]: 94%
residual activity [13]: 100%
residual activity [14]: 114%
residual activity [15]: 73%
residual activity [16]: 100%
residual activity [17]: 87%
residual activity [19]: 88%
residual activity [20]: 95%
residual activity [21]: 103%
residual activity [22]: 81%
residual activity [23]: 81%
residual activity [25]: 97%
residual activity [26]: 77%
residual activity [27]: 94%
residual activity [28]: 91%
residual activity [29]: 96%
residual activity [31]: 87%
IC50 [32]: > 10 µM (not active)
SMILES: N=C(N)NCCC[C@@H](NC(=O)C(c1ccccc1)c1ccccc1)C(=O)NCc1ccc(CNC(N)=O)cc1
residual activity (Homo sapiens): 110%
residual activity [18]: 91%
residual activity [24]: 114%
residual activity [30]: 102%
